In brackets after ≈: the same amount, converted by molar mass. Read-outs that look alike come from different tables or passages of the source.
What was measured:
[1] = test system: Streptococcus pyogenes; test: In vitro minimum inhibitory concentration (MIC), two-fold serial dilution in Brain-Heart Infusion broth; format: cell-based; settings: read-out: MIC vs. Strep. pyogenes
Protocol: The antibacterial penam compounds, 6, show activity against a wide variety of gram-positive and gram-negative bacteria. […] The broth is inoculated with the bacterial culture, and with the test antibiotic, and then it is incubated overnight. On the next day, the test is read visually. The minimum inhibitory concentration (MIC) is the lowest concentration of antibiotic which prevents turbidity, i.e., which prevents growth of the microorganism. In vitro activities of several of the penam compounds of the invention are presented later in this specification.
In vitro antibacterial activities for a number of compounds prepared by the procedure of Example 4 are presented below.
In Table II, the minimum inhibitory concentrations (MIC's) of numerous compounds against a strain of Streptococcus pyogenes, are reported.

[2] = test system: Staphylococcus aureus; test: In vivo protection of mice against systemic infection by lethal intraperitoneal inoculum of Staphylococcus aureus; parameters: species or system infected mice; Staphylococcus aureus; settings: SC, multiple dosing
Protocol: (§1) These antibacterial penam compounds are also active in vivo. In determining such activity, the test antibiotic is administered to infected mice, using a multiple dosing regimen. The severity of the infection varies from about one to about ten times the dose needed to kill 100% of the mice under the conditions of the test. At the end of the test, the activity of a compound is assessed by counting the number of survivors among the treated animals. Both the subcutaneous (SC) and oral (PO) dosage routes are used. Results are given in Table I for two compounds produced from the novel intermediate of the invention. The ability of the compounds to protect mice against systemic infections caused by a lethal intraperitoneal inoculum of Staphylococcus aureus or of Escherichia coli is presented.

[3] = test system: Escherichia coli; test: In vivo protection of mice against systemic infection by lethal intraperitoneal inoculum of Escherichia coli; parameters: species or system infected mice; Escherichia coli; settings: multiple dosing
Protocol: as §1

[4] = two-fold serial dilution, Brain-Heart Infusion broth, overnight incubation

Compound | MIC [1, 4] | further results
CC1(C)SC2C(NC(=O)[C@H](N)c3ccc(O)c(Cl)c3)C(=O)N2C1c1nn[nH]n1 (stereo partly drawn) | 0.1 µg/mL (≈ 0.236 µM) | 
CN(C)c1ccc(C(N)C(=O)NC2C(=O)N3C2SC(C)(C)C3c2nn[nH]n2)cc1 (racemic) | 0.39 µg/mL (≈ 0.936 µM) | 
CC1(C)SC2C(NC(=O)C(N)c3cccc(Cl)c3)C(=O)N2C1c1nn[nH]n1 (racemic) [DL-2-amino-2-(m-chlorophenyl)acetyl] | 0.78 µg/mL (≈ 1.91 µM) | 
CC1(C)SC2C(NC(=O)C3(N)CCCCC3)C(=O)N2C1c1nn[nH]n1 (stereo not drawn) [1-aminocyclohexylcarbonyl] | 25 µg/mL (≈ 68.4 µM) | 
COc1cccc(OC)c1C(=O)NC1C(=O)N2C1SC(C)(C)C2c1nn[nH]n1 (stereo not drawn) [2,6-dimethoxybenzoyl] | < 0.2 µg/mL | 
CC1(C)SC2C(NC(=O)Cn3cnnn3)C(=O)N2C1c1nn[nH]n1 (stereo not drawn) [2-(1-tetrazolyl)acetyl] | < 0.39 µg/mL | 
CC1(C)SC2C(NC(=O)CSc3ccncc3)C(=O)N2C1c1nn[nH]n1 (stereo not drawn) [2-(4-pyridylthio)acetyl] |  | MIC [1]: < 0.1 µg/mL
CC1(C)SC2C(NC(=O)CC#N)C(=O)N2C1c1nn[nH]n1 (stereo not drawn) [2-cyanoacetyl] | 0.1 µg/mL (≈ 0.325 µM) | 
CC1(C)S[C@@H]2C(NC(=O)[C@H](N)c3ccsc3)C(=O)N2C1c1nnn[nH]1 (stereo partly drawn) [6-(D-2-amino-2-[3-thienyl]acetamido)-2,2-dimethyl-3-(5-tetrazolyl)penam] |  | Percentage Protection S. aureus ([2]; 6 mg./kg.): 50 Percentage; Percentage Protection S. aureus ([2]; 12 mg./kg.): 50 Percentage; Percentage Protection S. aureus ([2]; 25 mg./kg.): 60 Percentage; Percentage Protection S. aureus ([2]; 50 mg./kg.): 40 Percentage; Percentage Protection E. coli ([3]; 25 mg./kg., SC): 20 Percentage; Percentage Protection E. coli ([3]; 50 mg./kg., SC): 20 Percentage; Percentage Protection E. coli ([3]; 200 mg./kg., PO): 0 Percentage
CC1(C)S[C@@H]2C(NC(=O)[C@H](N)c3ccc(O)cc3)C(=O)N2C1c1nnn[nH]1 (stereo partly drawn) [6-(D-2-amino-2-[p-hydroxyphenyl]acetamido)-2,2-dimethyl-3-(5-tetrazolyl)penam] | < 0.1 µg/mL | Percentage Protection S. aureus ([2]; 6 mg./kg.): 50 Percentage; Percentage Protection S. aureus ([2]; 12 mg./kg.): 50 Percentage; Percentage Protection S. aureus ([2]; 25 mg./kg.): 70 Percentage; Percentage Protection S. aureus ([2]; 50 mg./kg.): 80 Percentage; Percentage Protection E. coli ([3]; 25 mg./kg., SC): 80 Percentage; Percentage Protection E. coli ([3]; 50 mg./kg., SC): 100 Percentage; Percentage Protection E. coli ([3]; 200 mg./kg., PO): 100 Percentage
CC1(C)SC2C(NC(=O)[C@H](N)c3cccs3)C(=O)N2C1c1nn[nH]n1 (stereo partly drawn) [D-2-amino-2-(2-thienyl)acetyl] | 0.1 µg/mL (≈ 0.264 µM) | 
CC(C)[C@@H](N)C(=O)NC1C(=O)N2C1SC(C)(C)C2c1nn[nH]n1 (stereo partly drawn) [D-2-amino-3-methylbutyryl] | 0.2 µg/mL (≈ 0.589 µM) | 
CC1(C)SC2C(NC(=O)[C@H](N)Cc3ccccc3)C(=O)N2C1c1nn[nH]n1 (stereo partly drawn) [D-2-amino-3-phenylpropionyl] | 0.39 µg/mL (≈ 1.01 µM) | 
CC1(C)SC2C(NC(=O)OCc3ccccc3)C(=O)N2C1c1nn[nH]n1 (stereo not drawn) [benzyloxycarbonyl] | < 0.1 µg/mL | 
CCOC(=O)NC1C(=O)N2C1SC(C)(C)C2c1nn[nH]n1 (stereo not drawn) [ethoxycarbonyl] | < 0.1 µg/mL | 
CC1(C)S[C@@H]2C(N)C(=O)N2C1c1nnn[nH]1 (stereo partly drawn) [hydrogen, 6-Amino-2,2-dimethyl-3-(5-tetrazolyl)penam] | < 0.1 µg/mL | 
CC1(C)SC2C(NC(=O)Oc3ccccc3)C(=O)N2C1c1nn[nH]n1 (stereo not drawn) [phenoxycarbonyl] |  | MIC [1]: < 0.1 µg/mL

Second part, led by results:

MIC [1, 4] | Compound | further results
< 0.1 µg/mL | Cc1onc(-c2ccccc2Cl)c1C(=O)NC1C(=O)N2C1SC(C)(C)C2c1nn[nH]n1 (stereo not drawn) | 
< 0.1 µg/mL | CC1(C)SC2C(NC(=O)C(N)c3cc(O)ccc3Br)C(=O)N2C1c1nn[nH]n1 (racemic) | 
< 0.1 µg/mL | CC1(C)SC2C(NC(=O)C(N)c3ccc(O)c(O)c3)C(=O)N2C1c1nn[nH]n1 (racemic) [DL-2-amino-2-(3,4-dihydroxyphenyl)acetyl] | 
< 0.1 µg/mL | CC1(C)SC2C(NC(=O)C(N)c3ccc(Cl)cc3)C(=O)N2C1c1nn[nH]n1 (racemic) [DL-2-amino-2-(p-chlorophenyl)acetyl] | 
< 0.1 µg/mL | CCN=C(NCC)SCC(=O)NC1C(=O)N2C1SC(C)(C)C2c1nn[nH]n1 (stereo not drawn) [2-(N,N'-diethylamidinothio)acetyl] | 
< 0.1 µg/mL | CC1(C)SC2C(NC(=O)C(N=[N+]=[N-])c3ccccc3)C(=O)N2C1c1nn[nH]n1 (stereo not drawn) [2-azido-2-phenylacetyl] | 
< 0.1 µg/mL | CC1(C)SC2C(NC(=O)CBr)C(=O)N2C1c1nn[nH]n1 (stereo not drawn) [2-bromoacetyl] | 
< 0.1 µg/mL | CC1(C)SC2C(NC(=O)COc3ccccc3)C(=O)N2C1c1nn[nH]n1 (stereo not drawn) [2-phenoxyacetyl] | 
< 0.1 µg/mL | CC1(C)S[C@@H]2C(NC(=O)Cc3ccccc3)C(=O)N2C1c1nnn[nH]1 (stereo partly drawn) [2-phenylacetyl, 6-(2-phenylacetamido)-2,2-dimethyl-3-(5-tetrazolyl)penam] | 
< 0.1 µg/mL | CC1(C)SC2C(NC(=O)C=CC(N)=O)C(=O)N2C1c1nn[nH]n1 (stereo not drawn) [3-(carbamoyl)acryloyl] | 
< 0.1 µg/mL | CC1(C)SC2C(NC(=O)[C@H](N)c3cccc(F)c3)C(=O)N2C1c1nn[nH]n1 (stereo partly drawn) [D-2-amino-2-(m-fluorophenyl)acetyl] | 
< 0.1 µg/mL | CC1(C)SC2C(NC(=O)[C@H](N)c3cccc(O)c3)C(=O)N2C1c1nn[nH]n1 (stereo partly drawn) [D-2-amino-2-(m-hydroxyphenyl)acetyl] | 
< 0.1 µg/mL | CC1(C)SC2C(NC(=O)[C@H](N)c3ccccc3)C(=O)N2C1c1nn[nH]n1 (stereo partly drawn) [D-2-amino-2-phenylacetyl] | 
< 0.1 µg/mL | CC1(C)SC2C(NC(=O)[C@@H](N)c3ccc(O)cc3)C(=O)N2C1c1nn[nH]n1 (stereo partly drawn) [L-2-amino-2-(p-hydroxyphenyl)acetyl] | 
< 0.1 µg/mL | CC(=O)NC1C(=O)N2C1SC(C)(C)C2c1nn[nH]n1 (stereo not drawn) [acetyl] | 

Source: patent US3950350A, “Penam-dimethylsulfoxide complex” (Pfizer Inc., priority 1974, dated 1976)
